According to patent publication US20260297109A1, “COMPOUNDS AS SUMO ACTIVATING ENZYME INHIBITORS” (WIGEN BIOMEDICINE TECHNOLOGY (SHANGHAI) CO., LTD., priority 2022, published 2026):
Like-named read-outs stand apart in the source and are kept apart here. Each block holds one molecule with its values, some of them ahead of it.

Columns and labels:
SAE = molecular target: T1, SAE (Homo sapiens, UniProt Q9UBT2); test: SUMO IF: in vitro inhibitory activity assay against SAE in HCT116 cells (SUMO-2/3 immunofluorescence); type: cell-based; conditions: 6 h at 37° C.
T1 construct: endogenous in cells; host or cells: HCT116
T1 sequence (Q9UBT2 1-640): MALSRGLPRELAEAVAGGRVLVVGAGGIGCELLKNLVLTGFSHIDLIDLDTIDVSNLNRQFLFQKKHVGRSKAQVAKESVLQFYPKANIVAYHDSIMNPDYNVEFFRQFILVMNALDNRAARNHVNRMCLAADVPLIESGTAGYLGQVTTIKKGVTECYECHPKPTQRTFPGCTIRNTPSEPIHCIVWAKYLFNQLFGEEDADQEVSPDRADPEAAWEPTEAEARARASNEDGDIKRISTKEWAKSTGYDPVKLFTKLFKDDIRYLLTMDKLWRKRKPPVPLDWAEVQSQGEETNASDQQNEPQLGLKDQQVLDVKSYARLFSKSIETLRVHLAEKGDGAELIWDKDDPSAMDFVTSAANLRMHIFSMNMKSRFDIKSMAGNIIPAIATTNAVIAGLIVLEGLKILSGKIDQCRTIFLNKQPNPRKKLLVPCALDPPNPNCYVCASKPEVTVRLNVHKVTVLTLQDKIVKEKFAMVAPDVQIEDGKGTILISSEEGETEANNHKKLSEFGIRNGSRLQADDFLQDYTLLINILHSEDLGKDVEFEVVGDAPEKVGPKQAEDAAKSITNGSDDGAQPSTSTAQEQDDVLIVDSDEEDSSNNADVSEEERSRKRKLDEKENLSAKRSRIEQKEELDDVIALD
T1 sequence (Q9UBE0 1-346): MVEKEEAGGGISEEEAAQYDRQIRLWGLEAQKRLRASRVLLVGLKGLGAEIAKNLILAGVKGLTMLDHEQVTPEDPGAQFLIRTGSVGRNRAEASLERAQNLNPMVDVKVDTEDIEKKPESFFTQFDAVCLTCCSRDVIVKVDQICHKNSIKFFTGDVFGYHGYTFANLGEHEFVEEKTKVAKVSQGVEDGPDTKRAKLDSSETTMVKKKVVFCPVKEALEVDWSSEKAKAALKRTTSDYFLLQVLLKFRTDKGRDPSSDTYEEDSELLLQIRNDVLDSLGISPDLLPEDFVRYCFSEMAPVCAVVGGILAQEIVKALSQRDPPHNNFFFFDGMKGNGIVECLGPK
Procedure, shortened: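 HCT116 cells were treated with compound for 6 h at 37 °C, then PFA-fixed, Triton-permeabilised and BSA-blocked. They were stained overnight at 4 °C with anti-SUMO-2/3 (18H8) rabbit mAb (1:400), then with FITC anti-rabbit IgG (1:300). Fluorescence versus DMSO gave inhibition rate and IC50.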

[1] = In vivo pharmacokinetic experiment in CD-1 female mice, intravenous; conditions: CD-1 mice, 2 mpk; for Plasma AUClast: plasma (Table 4); for C0 / clearance / half-life / AUC(0-t) / Cmax / Vd / blood plasma ratio: mouse, 2 mg/kg; for Vd: read-out: Vdss; for blood plasma ratio: in vivo, iv
Method: Biological Example 3. In Vivo Pharmacokinetic Experiment of Compound of the Present Disclosure
[…] The mice were fasted for at least 12 h before the administration and given food after the administration, and they were given ad libitum access to water during the experiment. On the day of the experiment, animals in the intravenous group were administered the corresponding compound by single injection via the tail vein at an administration volume of 0.2 mL/animal. The sample collection time was 0.083 h, 0.167 h, 0.5 h, 1 h, 2 h, 4 h, 8 h, and 24 h. About 150 μL of whole blood was collected through the submaxillary venous plexus at each time point (30 μL of whole blood was diluted with ultrapure water at a ratio of 1:3, and 120 μL of whole blood was centrifuged to obtain plasma) and used for concentration determination by high-performance liquid chromatography-tandem mass spectrometry (LC-MS/MS). All animals were sacrificed after the PK samples were collected at the last time point. The plasma concentration was processed using a non-compartmental model of Phoenix WinNonlin™ version 8.3 (Certara) pharmacokinetic software, and the pharmacokinetic parameters were calculated using a linear-log trapezoidal method.

[2] = whole blood, read-out: Whole blood AUClast
[3] = whole blood, read-out: Whole blood Cmax
[4] = read-out: Whole blood AUClast/plasma AUClast ratio
[5] = read-out: Whole blood Cmax/plasma Cmax ratio

Plasma AUClast [1]: 345 ng·h/mL | C0 ([1]; plasma): 249 ng/mL | clearance ([1]; plasma): 94.9 mL/min/kg | half-life ([1]; plasma): 1.48 h | AUC(0-t) ([1]; plasma, read-out: AUClast): 345 ng·h/mL | Cmax ([1]; plasma, read-out: Cmax): 299 ng/mL | Vd ([1]; plasma): 8.65 L/kg | AUC(0-t) [1, 2]: 17000 ng·h/mL | Cmax [1, 3]: 7780 ng/mL | blood plasma ratio [1, 4]: 49.2 | blood plasma ratio [1, 5]: 26
Compound: NS(=O)(=O)OC[C@H]1[C@H](F)[C@@H](Nc2ncncc2C(=O)c2cc3c(s2)C=C[C@]32NCCc3ccc(Cl)cc32)C[C@@H]1O [Compound 344]
IC50 (SAE; numeric values): 20.7 nM

Plasma AUClast [1]: 602 ng·h/mL | C0 ([1]; plasma): 803 ng/mL | clearance ([1]; plasma): 27.5 mL/min/kg | half-life ([1]; plasma): 3.48 h | AUC(0-t) ([1]; plasma, read-out: AUClast): 602 ng·h/mL | Cmax ([1]; plasma, read-out: Cmax): 438 ng/mL | Vd ([1]; plasma): 5.45 L/kg | AUC(0-t) [1, 2]: 38200 ng·h/mL | Cmax [1, 3]: 9270 ng/mL | blood plasma ratio [1, 4]: 63.4 | blood plasma ratio [1, 5]: 21.1
Compound: NS(=O)(=O)OC[C@H]1[C@H](F)[C@@H](Nc2ncncc2C(=O)c2cc3c(s2)CC[C@]32NCCc3ccc(Cl)cc32)C[C@@H]1O [Compound 132]
IC50 (SAE; numeric values): 40.6 nM

Plasma AUClast [1]: 448 ng·h/mL | C0 ([1]; plasma): 406 ng/mL | clearance ([1]; plasma): 71.1 mL/min/kg | half-life ([1]; plasma): 1.88 h | AUC(0-t) ([1]; plasma, read-out: AUClast): 448 ng·h/mL | Cmax ([1]; plasma, read-out: Cmax): 281 ng/mL | Vd ([1]; plasma): 9.18 L/kg | AUC(0-t) [1, 2]: 25100 ng·h/mL | Cmax [1, 3]: 13300 ng/mL | blood plasma ratio [1, 4]: 56 | blood plasma ratio [1, 5]: 47.4
Compound: NS(=O)(=O)OC[C@H]1[C@H](F)[C@@H](Nc2ncncc2C(=O)c2cc3c(s2)CCC[C@]32NCCc3ccc(F)cc32)C[C@@H]1O [Compound 93]
IC50 (SAE; numeric values): 32.1 nM

Compound: NS(=O)(=O)OC[C@H]1[C@H](F)[C@@H](Nc2ncncc2C(=O)c2cc3c(s2)CCC32NCCc3ccc(C4CC4)cc32)C[C@@H]1O (some centres unmarked) [Compound 149]
IC50 (SAE; class symbols): 50 to 200 nM

Compound: NS(=O)(=O)OC[C@H]1[C@H](F)[C@@H](Nc2ncncc2C(=O)c2cc3c(s2)C(F)=CC32NCCc3ccc(F)cc32)C[C@@H]1O (some centres unmarked) [Compound 618]
IC50 (SAE; class symbols): 50 to 200 nM

Compound: NS(=O)(=O)OC[C@H]1[C@H](F)[C@@H](Nc2ncncc2C(=O)c2cc3c(s2)CCC32NCCc3ccc(C(F)(F)F)cc32)C[C@@H]1O (some centres unmarked) [Compound 151]
IC50 (SAE; class symbols): 50 to 200 nM

Compound: Cc1sc(C(=O)c2cncnc2N[C@H]2C[C@H](O)[C@@H](COS(N)(=O)=O)[C@@H]2F)cc1C1(C)NCCc2ccc(Cl)cc21 (some centres unmarked) [Compound 270]
IC50 (SAE; class symbols): 50 to 200 nM

Compound: NS(=O)(=O)CC[C@H]1[C@H](F)[C@@H](Nc2ncncc2C(=O)c2cc3c(s2)C=C[C@]32NCCc3ccc(Cl)cc32)C[C@@H]1O [Compound 640]
IC50 (SAE; class symbols): 50 to 200 nM

Compound: NS(=O)(=O)OC[C@H]1[C@H](F)[C@@H](Nc2ncncc2C(=O)c2cc3c(s2)CCC32NCCc3cc(F)c(Cl)cc32)C[C@@H]1O (some centres unmarked) [Compound 153]
IC50 (SAE; class symbols): ≤ 50 nM

Compound: C=CCN1Cc2sc(C(=O)c3cncnc3N[C@H]3C[C@H](O)[C@@H](COS(N)(=O)=O)[C@@H]3F)cc2[C@]2(C1)NCCc1ccc(Cl)cc12 [Compound 656]
IC50 (SAE; numeric values): 25.1 nM

Compound: NS(=O)(=O)OC[C@H]1[C@H](F)[C@@H](Nc2ncncc2C(=O)c2cc3c(s2)CSC[C@]32NCCc3ccc(Cl)cc32)C[C@@H]1O [Compound 302]
IC50 (SAE; numeric values): 21.5 nM

Compound: NS(=O)(=O)OC[C@H]1[C@H](F)[C@@H](Nc2ncncc2C(=O)c2cc3c(s2)COCC32NCCc3ccc(Cl)c(Cl)c32)C[C@@H]1O (some centres unmarked) [Compound 558]
IC50 (SAE; class symbols): 50 to 200 nM

Compound: CN1Cc2sc(C(=O)c3cncnc3N[C@H]3C[C@H](O)[C@@H](COS(N)(=O)=O)[C@@H]3F)cc2C2(C1)NCCc1ccc(Cl)cc12 (some centres unmarked) [Compound 576]
IC50 (SAE; class symbols): ≤ 50 nM

Compound: NS(=O)(=O)OC[C@H]1[C@H](F)[C@@H](Nc2ncncc2C(=O)c2cc3c(s2)CN(CC(F)(F)F)C[C@]32NCCc3ccc(Cl)cc32)C[C@@H]1O [Compound 653]
IC50 (SAE; numeric values): 25.9 nM

Compound: NS(=O)(=O)OC[C@H]1[C@H](F)[C@@H](Nc2ncncc2C(=O)c2nc3c(s2)COC[C@]32NCCc3ccc(Cl)cc32)C[C@@H]1O [Compound 590]
IC50 (SAE; class symbols): > 200 nM

Compound: NS(=O)(=O)OC[C@H]1[C@H](F)[C@@H](Nc2ncncc2C(=O)c2cc3c(s2)CCCC32NCCc3cc(F)c(F)cc32)C[C@@H]1O (some centres unmarked) [Compound 110]
IC50 (SAE; class symbols): 50 to 200 nM

Compound: NS(=O)(=O)OC[C@H]1[C@H](F)[C@@H](Nc2ncncc2C(=O)c2cc3c(s2)OC[C@]32NCCc3ccccc32)C[C@@H]1O [Compound 141]
IC50 (SAE; class symbols): 50 to 200 nM

Compound: NS(=O)(=O)OC[C@H]1[C@H](F)[C@@H](Nc2ncncc2C(=O)c2cc3c(s2)CCCC32NCC(=O)c3ccc(Cl)cc32)C[C@@H]1O (some centres unmarked) [Compound 125]
IC50 (SAE; class symbols): 50 to 200 nM

Compound: NS(=O)(=O)OC[C@H]1[C@H](F)[C@@H](Nc2ncncc2C(=O)c2cc3c(s2)COC[C@]32NCCc3ccc(Cl)c(F)c32)C[C@@H]1O [Compound 569]
IC50 (SAE; class symbols): 50 to 200 nM

Compound: [2H]C1([2H])CN[C@]2(CCCc3sc(C(=O)c4cncnc4N[C@H]4C[C@H](O)[C@@H](COS(N)(=O)=O)[C@@H]4F)cc32)c2cc(Cl)ccc21 [Compound 665]
IC50 (SAE; numeric values): 20.6 nM

Compound: NS(=O)(=O)OC[C@H]1[C@H](F)[C@@H](Nc2ncncc2C(=O)c2cc3c(s2)COCC32NCCc3ccc(F)cc32)C[C@@H]1O (some centres unmarked) [Compound 100]
IC50 (SAE; class symbols): 50 to 200 nM

Compound: NS(=O)(=O)OC[C@H]1[C@H](F)[C@@H](Nc2ncncc2C(=O)c2cc3c(s2)CCC32NCC3(CC3)c3ccc(Cl)cc32)C[C@@H]1O (some centres unmarked) [Compound 165]
IC50 (SAE; class symbols): 50 to 200 nM

Compound: N#Cc1ccc2c(c1)C1(CCCc3sc(C(=O)c4cncnc4N[C@H]4C[C@H](O)[C@@H](COS(N)(=O)=O)[C@@H]4F)cc31)NCC2 (some centres unmarked) [Compound 94]
IC50 (SAE; class symbols): 50 to 200 nM

Compound: CN1Cc2sc(C(=O)c3cncnc3N[C@H]3C[C@H](O)[C@@H](COS(N)(=O)=O)[C@@H]3F)cc2C2(C1)OCCc1ccc(F)cc12 (some centres unmarked) [Compound 720]
IC50 (SAE; class symbols): 50 to 200 nM

Compound: NS(=O)(=O)OC[C@H]1[C@H](F)[C@@H](Nc2ncncc2C(=O)c2cc3c(s2)CCC[C@]32NCCc3cc(F)c(Cl)cc32)C[C@@H]1O [Compound 671]
IC50 (SAE; class symbols): ≤ 50 nM

Compound: NS(=O)(=O)OC[C@H]1[C@H](F)[C@@H](Nc2ncncc2C(=O)c2cc3c(s2)CSCC32NCCc3ccc(Cl)nc32)C[C@@H]1O (some centres unmarked) [Compound 609]
IC50 (SAE; class symbols): 50 to 200 nM

Compound: NS(=O)(=O)OC[C@H]1[C@H](F)[C@@H](Nc2ncncc2C(=O)c2cc3c(s2)COC[C@]32NCCc3ccc(F)cc32)C[C@@H]1O [Compound 102]
IC50 (SAE; class symbols): 50 to 200 nM

Compound: Cc1sc(C(=O)c2cncnc2N[C@H]2C[C@H](O)[C@@H](CCS(N)(=O)=O)[C@@H]2F)cc1[C@@H]1NCCc2ccc(Cl)cc21 [Compound 991]
IC50 (SAE; class symbols): 50 to 200 nM

Compound: NS(=O)(=O)OC[C@H]1[C@H](F)[C@@H](Nc2ncncc2C(=O)c2cc3c(s2)CSC[C@]32NCCc3ccc(F)cc32)C[C@@H]1O [Compound 299]
IC50 (SAE; class symbols): ≤ 50 nM

Compound: NS(=O)(=O)OC[C@H]1[C@H](F)[C@@H](Nc2ncncc2C(=O)c2cc3c(s2)CCC[C@]32NCCc3ccccc32)C[C@@H]1O [Compound 87]
IC50 (SAE; class symbols): ≤ 50 nM

Compound: NS(=O)(=O)OC[C@H]1[C@H](F)[C@@H](Nc2ncncc2C(=O)c2nc3c(s2)CSCC32NCCc3ccc(Cl)cc32)C[C@@H]1O (some centres unmarked) [Compound 591]
IC50 (SAE; class symbols): > 200 nM

Compound: NS(=O)(=O)OC[C@H]1[C@H](F)[C@@H](Nc2ncncc2C(=O)c2cc3c(s2)C(=O)C[C@]32NCCc3ccc(Cl)cc32)C[C@@H]1O [Compound 632]
IC50 (SAE; class symbols): 50 to 200 nM
